Assay results taken from article PMC5218480 (PLoS ONE, 2017).

Tested on: MV-4-11 cells
Test: Gene expression microarray analysis (Affymetrix PrimeView) and GSEA
Format: cell-based, human
Design: RFU PODN (11730768_x_at) / Fold change /veh PODN (11730768_x_at) / RFU LINC00158 (11744669_a_at) / Fold change /veh LINC00158 (11744669_a_at) / RFU DUSP10 (11751237_a_at) / Fold change /veh DUSP10 (11751237_a_at) / RFU ID3 (11757404_x_at) / Fold change /veh ID3 (11757404_x_at) / RFU PLEKHG5 (11737974_s_at) / Fold change /veh PLEKHG5 (11737974_s_at) / RFU LRRC4B (11730491_at) / Fold change /veh LRRC4B (11730491_at) / RFU GIMAP4 (11747438_a_at) / Fold change /veh GIMAP4 (11747438_a_at) / RFU KRT8 (11758183_x_at) / Fold change /veh KRT8 (11758183_x_at) / RFU CNN1 (11734310_a_at) / Fold change /veh CNN1 (11734310_a_at) / RFU VPS37D (11726825_at) / Fold change /veh VPS37D (11726825_at) / RFU C10orf10 (11716522_x_at) / Fold change /veh C10orf10 (11716522_x_at) / RFU KIR2DL2 /// KIR2DL4 /// KIR2DL5A /// KIR2DL5B /// KIR2DS1 /// KIR2DS2 /// KIR2DS3 /// KIR2DS4 /// KIR3DL3 /// KIR3DL3 /// KIR3DS1 (11738374_at) / Fold change /veh KIR2DL2 /// KIR2DL4 /// KIR2DL5A /// KIR2DL5B /// KIR2DS1 /// KIR2DS2 /// KIR2DS3 /// KIR2DS4 /// KIR3DL3 /// KIR3DL3 /// KIR3DS1 (11738374_at) / RFU C1QL1 (11718748_at) / Fold change /veh C1QL1 (11718748_at) / RFU TMPRSS4 (11747572_a_at) / Fold change /veh TMPRSS4 (11747572_a_at) / RFU HAMP (11756126_x_at) / Fold change /veh HAMP (11756126_x_at) / RFU RNFT2 (11725882_a_at) / Fold change /veh RNFT2 (11725882_a_at) / RFU NR4A2 (11747474_a_at) / Fold change /veh NR4A2 (11747474_a_at) / RFU ABCC12 (11746883_a_at) / Fold change /veh ABCC12 (11746883_a_at) / RFU TMEM136 (11760407_x_at) / Fold change /veh TMEM136 (11760407_x_at) / RFU CLDN22 /// WWC2 (11732394_at) / Fold change /veh CLDN22 /// WWC2 (11732394_at) / RFU HLA-DPB1 (11760878_x_at) / Fold change /veh HLA-DPB1 (11760878_x_at) / RFU SPINT1 (11716480_a_at) / Fold change /veh SPINT1 (11716480_a_at) / RFU GAP43 (11754022_s_at) / Fold change /veh GAP43 (11754022_s_at) / RFU A4GNT (11735810_at) / Fold change /veh A4GNT (11735810_at) / RFU PRB3 (11715151_x_at) / Fold change /veh PRB3 (11715151_x_at) / RFU TUBB4B (11761932_at) / Fold change /veh TUBB4B (11761932_at) / RFU CAPN14 (11732068_a_at) / Fold change /veh CAPN14 (11732068_a_at) / RFU TMCC2 (11721928_a_at) / Fold change /veh TMCC2 (11721928_a_at) / RFU IRGQ (11745062_a_at) / Fold change /veh IRGQ (11745062_a_at) / RFU FAM174B (11720279_a_at) / Fold change /veh FAM174B (11720279_a_at) / RFU TMPRSS4 (11748680_a_at) / Fold change /veh TMPRSS4 (11748680_a_at) / RFU FAM212B (11763350_a_at) / Fold change /veh FAM212B (11763350_a_at) / RFU PLEKHG5 (11743358_a_at) / Fold change /veh PLEKHG5 (11743358_a_at) / RFU ZSCAN30 (11745921_a_at) / Fold change /veh ZSCAN30 (11745921_a_at) / RFU CMKLR1 (11741424_a_at) / Fold change /veh CMKLR1 (11741424_a_at) / RFU LOC101060620 /// MAPK8IP1 (11723275_at) / Fold change /veh LOC101060620 /// MAPK8IP1 (11723275_at) / RFU SPTSSB (11747773_x_at) / Fold change /veh SPTSSB (11747773_x_at) / RFU PRSS12 (11739890_at) / Fold change /veh PRSS12 (11739890_at) / RFU BIN1 (11741810_x_at) / Fold change /veh BIN1 (11741810_x_at) / RFU WNT11 (11732464_a_at) / Fold change /veh WNT11 (11732464_a_at) / RFU C10orf10 (11716521_a_at) / Fold change /veh C10orf10 (11716521_a_at) / RFU C5orf56 (11738089_at) / Fold change /veh C5orf56 (11738089_at) / RFU CYB561 (11721691_x_at) / Fold change /veh CYB561 (11721691_x_at) / RFU ANKRD19P (11752326_a_at) / Fold change /veh ANKRD19P (11752326_a_at) / RFU OR2T12 /// OR2T33 /// OR2T8 (11738714_s_at) / Fold change /veh OR2T12 /// OR2T33 /// OR2T8 (11738714_s_at) / RFU VCAN (11748164_a_at) / Fold change /veh VCAN (11748164_a_at) / RFU JSRP1 (11732532_at) / Fold change /veh JSRP1 (11732532_at) / RFU KRTAP10-11 (11738290_x_at) / Fold change /veh KRTAP10-11 (11738290_x_at) / RFU MYO3A (11730013_a_at) / Fold change /veh MYO3A (11730013_a_at) / RFU EBF3 (11725865_a_at) / Fold change /veh EBF3 (11725865_a_at) / RFU CAMK2N1 (11719241_x_at) / Fold change /veh CAMK2N1 (11719241_x_at) / RFU C5orf56 (11738088_a_at) / Fold change /veh C5orf56 (11738088_a_at) / RFU OLFML3 (11715873_a_at) / Fold change /veh OLFML3 (11715873_a_at) / RFU LOC100653217 /// NTM (11731650_a_at) / Fold change /veh LOC100653217 /// NTM (11731650_a_at) / RFU MAPK11 (11762145_a_at) / Fold change /veh MAPK11 (11762145_a_at) / RFU FIZ1 (11724087_x_at) / Fold change /veh FIZ1 (11724087_x_at) / RFU OASL (11726364_x_at) / Fold change /veh OASL (11726364_x_at) / RFU SOX15 (11748057_x_at) / Fold change /veh SOX15 (11748057_x_at) / RFU CD79A (11719716_a_at) / Fold change /veh CD79A (11719716_a_at) / RFU HIST1H1D (11736915_at) / Fold change /veh HIST1H1D (11736915_at) / RFU CASKIN2 (11723855_a_at) / Fold change /veh CASKIN2 (11723855_a_at) / RFU LOC730098 (11760151_x_at) / Fold change /veh LOC730098 (11760151_x_at) / RFU OR4N2 (11742367_at) / Fold change /veh OR4N2 (11742367_at) / RFU PRRT2 (11749266_a_at) / Fold change /veh PRRT2 (11749266_a_at) / RFU SNX32 (11753110_a_at) / Fold change /veh SNX32 (11753110_a_at) / RFU CDHR5 (11726645_a_at) / Fold change /veh CDHR5 (11726645_a_at) / RFU RCAN1 (11760418_a_at) / Fold change /veh RCAN1 (11760418_a_at) / RFU FAM167A (11723789_a_at) / Fold change /veh FAM167A (11723789_a_at) / RFU FAM26E (11764081_at) / Fold change /veh FAM26E (11764081_at) / RFU ISYNA1 (11749810_s_at) / Fold change /veh ISYNA1 (11749810_s_at) / RFU ACY1 (11761880_at) / Fold change /veh ACY1 (11761880_at) / RFU 11764098_at / Fold change /veh 11764098_at / RFU SAMD14 (11745864_x_at) / Fold change /veh SAMD14 (11745864_x_at) / RFU NPB (11741838_a_at) / Fold change /veh NPB (11741838_a_at) / RFU TMPRSS6 (11731388_a_at) / Fold change /veh TMPRSS6 (11731388_a_at) / RFU KRTAP10-2 (11738614_at) / Fold change /veh KRTAP10-2 (11738614_at) / RFU ARHGAP8 /// PRR5-ARHGAP8 (11727945_x_at) / Fold change /veh ARHGAP8 /// PRR5-ARHGAP8 (11727945_x_at) / RFU KRTAP5-7 /// NADSYN1 (11734609_at) / Fold change /veh KRTAP5-7 /// NADSYN1 (11734609_at) / RFU RASL12 (11751679_a_at) / Fold change /veh RASL12 (11751679_a_at) / RFU CDKN2B (11736163_a_at) / Fold change /veh CDKN2B (11736163_a_at) / RFU PRF1 (11729649_at) / Fold change /veh PRF1 (11729649_at) / RFU, ZNF638 /// ZNF638-IT1 / Fold change vs veh, ZNF638 /// ZNF638-IT1 / RFU, PANK3 / Fold change vs veh, PANK3 / RFU, SH3YL1 / Fold change vs veh, SH3YL1 / RFU, ZEB2 / Fold change vs veh, ZEB2 / RFU, NRIP1 / Fold change vs veh, NRIP1 / RFU, PTTG1IP / Fold change vs veh, PTTG1IP / RFU, CAPN2 / Fold change vs veh, CAPN2 / RFU, MED14 / Fold change vs veh, MED14 / RFU, SNORA58 / Fold change vs veh, SNORA58 / RFU, C1orf63 / Fold change vs veh, C1orf63 / RFU, LRRFIP1 / Fold change vs veh, LRRFIP1 / RFU, NDUFAF7 / Fold change vs veh, NDUFAF7 / RFU, SLC12A2 / Fold change vs veh, SLC12A2 / RFU, IBTK / Fold change vs veh, IBTK / RFU, ESF1 / Fold change vs veh, ESF1 / Fold change vs veh, TMEM50B / RFU, TAOK1 / Fold change vs veh, TAOK1 / RFU, ACBD3 / Fold change vs veh, ACBD3 / RFU, TMA16 / Fold change vs veh, TMA16 / RFU, RWDD3 / Fold change vs veh, RWDD3 / RFU, BCAT1 / Fold change vs veh, BCAT1 / RFU, EDEM3 / Fold change vs veh, EDEM3 / RFU, TMEM33 / Fold change vs veh, TMEM33 / RFU, WDR75 / Fold change vs veh, WDR75 / RFU, AHCTF1 / Fold change vs veh, AHCTF1 / RFU, TFRC / Fold change vs veh, TFRC / RFU, ZDHHC17 / Fold change vs veh, ZDHHC17 / RFU, NOM1 / Fold change vs veh, NOM1 / RFU, ARL8B / Fold change vs veh, ARL8B / RFU, ZBTB11 / Fold change vs veh, ZBTB11 / RFU, TAMM41 / Fold change vs veh, TAMM41 / RFU, KIAA1704 /// LOC100996395 / Fold change vs veh, KIAA1704 /// LOC100996395 / RFU, ING1 / Fold change vs veh, ING1 / RFU, TRMT61B / Fold change vs veh, TRMT61B / RFU, FUBP3 / Fold change vs veh, FUBP3 / RFU, TP53 / Fold change vs veh, TP53 / RFU, TNKS2 / Fold change vs veh, TNKS2 / RFU, ZFP14 / Fold change vs veh, ZFP14 / RFU, ACTR2 / Fold change vs veh, ACTR2 / RFU, PPP3R1 / Fold change vs veh, PPP3R1 / RFU, PIK3R1 / Fold change vs veh, PIK3R1 / RFU, HNRNPA1 / Fold change vs veh, HNRNPA1 / RFU, RNF170 / Fold change vs veh, RNF170 / RFU, ZNF28 / Fold change vs veh, ZNF28 / RFU, RNGTT / Fold change vs veh, RNGTT / RFU, OGT / Fold change vs veh, OGT / RFU, BRD1 / Fold change vs veh, BRD1 / RFU, MARS / Fold change vs veh, MARS / RFU, ZNF655 / Fold change vs veh, ZNF655 / RFU, FAHD1 / Fold change vs veh, FAHD1 / RFU, BDP1 / Fold change vs veh, BDP1 / RFU, LRRCC1 / Fold change vs veh, LRRCC1 / RFU, ARID1A / Fold change vs veh, ARID1A / RFU, ZNF146 / Fold change vs veh, ZNF146 / RFU, ZNF330 / Fold change vs veh, ZNF330 / RFU, GPN3 / Fold change vs veh, GPN3 / RFU, C9orf123 / Fold change vs veh, C9orf123 / RFU, N4BP2L2 / Fold change vs veh, N4BP2L2 / RFU, ARFIP1 / Fold change vs veh, ARFIP1 / RFU, FAM179B / Fold change vs veh, FAM179B / RFU, BCL10 / Fold change vs veh, BCL10 / RFU, UHRF1BP1L / Fold change vs veh, UHRF1BP1L / RFU, BET1 / Fold change vs veh, BET1 / RFU, CNOT2 / Fold change vs veh, CNOT2 / RFU, ZNF268 / Fold change vs veh, ZNF268 / Fold change vs veh, ZNF507 / RFU, DGCR2 / Fold change vs veh, DGCR2 / RFU, WDSUB1 / Fold change vs veh, WDSUB1 / Fold change vs veh, HSP90B1 /// MIR3652 / RFU, ADSS / Fold change vs veh, ADSS / RFU, GK / Fold change vs veh, GK / RFU, ZNF148 / Fold change vs veh, ZNF148 / RFU, TAF9 / Fold change vs veh, TAF9 / RFU, SLC1A5 / Fold change vs veh, SLC1A5 / RFU, SLMO2 / Fold change vs veh, SLMO2 / RFU, ABCC4 / Fold change vs veh, ABCC4 / RFU, LOC101060439 /// RAP1B / Fold change vs veh, LOC101060439 /// RAP1B / RFU, RFX7 / Fold change vs veh, RFX7 / RFU, GTPBP10 / Fold change vs veh, GTPBP10 / RFU, CNEP1R1 / Fold change vs veh, CNEP1R1 / RFU, BIVM-ERCC5 /// ERCC5 / Fold change vs veh, BIVM-ERCC5 /// ERCC5 / RFU, ILF3 / Fold change vs veh, ILF3 / RFU 11762660_at / Fold change /veh 11762660_at / RFU VCAN (11757783_s_at) / Fold change /veh VCAN (11757783_s_at) / RFU DDX43 (11728927_at) / Fold change /veh DDX43 (11728927_at) / RFU KRT8 (11758188_x_at) / Fold change /veh KRT8 (11758188_x_at) / RFU NKD1 (11759106_at) / Fold change /veh NKD1 (11759106_at) / RFU SRD5A1 (11742802_a_at) / Fold change /veh SRD5A1 (11742802_a_at) / RFU TPSAB1 /// TPSB2 (11721975_s_at) / Fold change /veh TPSAB1 /// TPSB2 (11721975_s_at) / RFU GSTM3 (11746129_a_at) / Fold change /veh GSTM3 (11746129_a_at) / RFU IL23R (11737362_x_at) / Fold change /veh IL23R (11737362_x_at) / RFU TMEM51 (11727254_a_at) / Fold change /veh TMEM51 (11727254_a_at) / RFU PIWIL2 (11732686_x_at) / Fold change /veh PIWIL2 (11732686_x_at) / RFU ORM1 (11744905_x_at) / Fold change /veh ORM1 (11744905_x_at) / RFU CCDC152 (11743942_at) / Fold change /veh CCDC152 (11743942_at) / RFU ECM1 (11717891_a_at) / Fold change /veh ECM1 (11717891_a_at) / RFU IL23R (11748794_a_at) / Fold change /veh IL23R (11748794_a_at) / RFU TNFAIP8L3 (11732012_x_at) / Fold change /veh TNFAIP8L3 (11732012_x_at) / RFU MBOAT4 (11741988_at) / Fold change /veh MBOAT4 (11741988_at) / RFU 11764193_at / Fold change /veh 11764193_at / RFU TMEM53 (11763286_at) / Fold change /veh TMEM53 (11763286_at) / RFU MAGEB2 (11727129_at) / Fold change /veh MAGEB2 (11727129_at) / RFU TMEM200A (11744735_a_at) / Fold change /veh TMEM200A (11744735_a_at) / RFU CCDC152 (11751479_a_at) / Fold change /veh CCDC152 (11751479_a_at) / RFU FAM211A (11726209_a_at) / Fold change /veh FAM211A (11726209_a_at) / RFU RGS16 (11746705_a_at) / Fold change /veh RGS16 (11746705_a_at) / RFU VCAN (11755009_s_at) / Fold change /veh VCAN (11755009_s_at) / RFU RHOB (11743442_s_at) / Fold change /veh RHOB (11743442_s_at) / RFU RGS16 (11720943_a_at) / Fold change /veh RGS16 (11720943_a_at) / RFU RGS16 (11720944_at) / Fold change /veh RGS16 (11720944_at) / RFU, VPS4B / Fold change vs veh, VPS4B / RFU, CREB1 / Fold change vs veh, CREB1 / RFU, DNAJC13 / Fold change vs veh, DNAJC13 / RFU, GNAQ / Fold change vs veh, GNAQ / RFU, CDK5R1 / Fold change vs veh, CDK5R1 / RFU, ZRANB3 / Fold change vs veh, ZRANB3 / RFU, CUL4A / Fold change vs veh, CUL4A / RFU, CCNY / Fold change vs veh, CCNY / RFU, UFL1 / Fold change vs veh, UFL1 / RFU, COG3 / Fold change vs veh, COG3 / RFU, DIAPH2 / Fold change vs veh, DIAPH2 / RFU, SKA2 / Fold change vs veh, SKA2 / RFU, AFF3 / Fold change vs veh, AFF3 / RFU, LMF1 / Fold change vs veh, LMF1 / RFU, IPO11 / Fold change vs veh, IPO11 / RFU, DFFB / Fold change vs veh, DFFB / RFU, FOXP1 / Fold change vs veh, FOXP1 / RFU, CARD8 / Fold change vs veh, CARD8 / RFU, STRN3 / Fold change vs veh, STRN3 / RFU, ADK / Fold change vs veh, ADK / RFU, RASSF2 / Fold change vs veh, RASSF2 / RFU, WIPF1 / Fold change vs veh, WIPF1 / RFU, LARP1B / Fold change vs veh, LARP1B / RFU, RASA1 / Fold change vs veh, RASA1 / RFU, RB1 / Fold change vs veh, RB1 / RFU, PPFIA1 / Fold change vs veh, PPFIA1 / RFU, MAT2A / Fold change vs veh, MAT2A / RFU, CCT5 / Fold change vs veh, CCT5 / RFU, WDR92 / Fold change vs veh, WDR92 / RFU, CUX1 / Fold change vs veh, CUX1 / RFU, TTC7A / Fold change vs veh, TTC7A / RFU, TMEM135 / Fold change vs veh, TMEM135 / RFU, DEPTOR / Fold change vs veh, DEPTOR / RFU, CPM / Fold change vs veh, CPM / RFU, DNAJB6 / Fold change vs veh, DNAJB6 / RFU, CACNA2D3 / Fold change vs veh, CACNA2D3 / RFU, DTX4 / Fold change vs veh, DTX4 / RFU, TFCP2 / Fold change vs veh, TFCP2 / RFU, GMCL1 /// GMCL1P1 / Fold change vs veh, GMCL1 /// GMCL1P1 / RFU, AEBP2 / Fold change vs veh, AEBP2 / RFU, SNHG1 /// SNORD22 /// SNORD25 /// SNORD26 /// SNORD27 /// SNORD28 /// SNORD29 /// SNORD31 / Fold change vs veh, SNHG1 /// SNORD22 /// SNORD25 /// SNORD26 /// SNORD27 /// SNORD28 /// SNORD29 /// SNORD31 / Fold change (Aza/veh), C12orf56 (ProbeSet 11735607_a_at) / Fold change (ACY-1035/veh), C12orf56 (ProbeSet 11735607_a_at) / Fold change (Aza/veh), FGFR1OP (ProbeSet 11751329_s_at) / Fold change (ACY-1035/veh), FGFR1OP (ProbeSet 11751329_s_at) / Fold change (Aza/veh), VPS36 (ProbeSet 11739960_a_at) / Fold change (ACY-1035/veh), VPS36 (ProbeSet 11739960_a_at) / RFU SYPL1 (11715823_x_at) / Fold change /veh SYPL1 (11715823_x_at) / RFU IGFBP7 (11715501_s_at) / Fold change /veh IGFBP7 (11715501_s_at) / RFU REEP3 (11722064_at) / Fold change /veh REEP3 (11722064_at) / RFU IGLL1 (11728026_x_at) / Fold change /veh IGLL1 (11728026_x_at): dose or concentration left out as unconfirmed
Conditions: ProbeSet 11724526_at; LIST B

Nc1ccc(-c2cccs2)cc1NC(=O)c1ccc2c(c1)cc(C1CC1)n2CCN1CCOCC1 [ACY-1035]
Fold change vs veh, FAHD1: 1.05
